Results reported in patent US20240308960A1 (Sumitomo Pharma Co., Ltd., priority 2021, published 2024).

These compounds were tested against T1, Human orexin receptor type 2 (Homo sapiens, UniProt O43614) (assay: Test Example 1: agonist activity for orexin receptor type 2 (aequorin luminescence, intracellular calcium mobilization)). Conditions: compound 10 μm; CHO cells transiently expressing human orexin receptor type 2 and apoaequorin; relative percentage of luminescence for the luminescence (100%) of Orexin A (100 μM).
T1 sequence (O43614 1-444): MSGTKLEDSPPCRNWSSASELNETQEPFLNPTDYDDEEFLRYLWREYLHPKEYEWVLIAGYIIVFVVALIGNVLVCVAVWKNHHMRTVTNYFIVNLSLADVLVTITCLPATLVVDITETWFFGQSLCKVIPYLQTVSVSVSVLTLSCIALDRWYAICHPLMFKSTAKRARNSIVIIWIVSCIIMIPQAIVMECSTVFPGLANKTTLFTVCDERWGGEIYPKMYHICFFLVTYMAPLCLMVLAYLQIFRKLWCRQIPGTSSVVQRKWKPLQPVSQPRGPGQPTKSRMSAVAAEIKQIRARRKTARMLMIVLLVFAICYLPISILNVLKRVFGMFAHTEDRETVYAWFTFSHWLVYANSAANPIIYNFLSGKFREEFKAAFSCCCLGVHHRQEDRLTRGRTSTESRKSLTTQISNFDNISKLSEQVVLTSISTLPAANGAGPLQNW

`Cc1cc(C2(C)CCN(C(=O)Nc3c(F)cccc3N3CCN(C(C)C)CC3)CC2)no1` [Example 85, N-{2-fluoro-6-[4-(propan-2-yl)piperazin-1-yl]phenyl}-4-methyl-4-(5-methyl-1,2-oxazol-3-yl)piperidine-1-carboxamide] was tested. Which “Agonist Activity (%)” value did it give?
Its value is 145%.

How did the “Agonist Activity (%)” value turn out when `CC(C)N1CCN(c2cccc(Cl)c2NC(=O)N2CCC(C)(c3noc(C(F)(F)F)n3)CC2)CC1` [Example 86, N-{2-chloro-6-[4-(propan-2-yl)piperazin-1-yl]phenyl}-4-methyl-4-[5-(trifluoromethyl)-1,2,4-oxadiazol-3-yl]piperidine-1-carboxamide] was run?
Its value is 138%.

`CCC1(c2noc(C3CC3)n2)CCN(C(=O)Nc2c(F)cccc2N2CCN(C(C)C)CC2)CC1` [Example 87, 4-(5-cyclopropyl-1,2,4-oxadiazol-3-yl)-4-ethyl-N-{2-fluoro-6-[4-(propan-2-yl)piperazin-1-yl]phenyl}piperidine-1-carboxamide] was tested. Which “Agonist Activity (%)” value did it give?
Its value is 142%.

Which “Agonist Activity (%)” value does the source give for `CC(C)N1CCN(c2cccc(Br)c2NC(=O)N2CCC(C)(c3noc(C4CC4)n3)CC2)CC1` [Example 88, N-{2-bromo-6-[4-(propan-2-yl)piperazin-1-yl]phenyl}-4-(5-cyclopropyl-1,2,4-oxadiazol-3-yl)-4-methylpiperidine-1-carboxamide] here?
Its value is 161%.

With `CCC1(c2noc(C3CC3)n2)CCN(C(=O)Nc2c(Cl)cccc2N2CCN(C(C)C)CC2)CC1` [Example 89, N-{2-chloro-6-[4-(propan-2-yl)piperazin-1-yl]phenyl}-4-(5-cyclopropyl-1,2,4-oxadiazol-3-yl)-4-ethylpiperidine-1-carboxamide] as the compound, how does the “Agonist Activity (%)” value read?
Its value is 152%.

Which “Agonist Activity (%)” value does the source give for `Cc1onc(C2(C)CCN(C(=O)Nc3c(Cl)cccc3N3CCN(C(C)C)CC3)CC2)c1Cl` [Example 90, 4-(4-chloro-5-methyl-1,2-oxazol-3-yl)-N-{2-chloro-6-[4-(propan-2-yl)piperazin-1-yl]phenyl}-4-methylpiperidine-1-carboxamide] here?
The value was 164%.

Which “Agonist Activity (%)” value does the source give for `CC(C)N1CCN(c2cccc(F)c2NC(=O)N2CCC(C)(C3CCCC3)CC2)CC1` [Example 91, 4-cyclopentyl-N-{2-fluoro-6-[4-(propan-2-yl)piperazin-1-yl]phenyl}-4-methylpiperidine-1-carboxamide] here?
The value was 195%.

With `Cc1ncc(C2(C)CCN(C(=O)Nc3c(Cl)cccc3N3CCN(C(C)C)CC3)CC2)o1` [Example 92, N-{2-chloro-6-[4-(propan-2-yl)piperazin-1-yl]phenyl}-4-methyl-4-(2-methyl-1,3-oxazol-5-yl)piperidine-1-carboxamide] as the compound, how does the “Agonist Activity (%)” value read?
Its value is 196%.

For `CC(C)c1ncc(C2(C)CCN(C(=O)Nc3c(Cl)cccc3N3CCN(C(C)C)CC3)CC2)o1` [Example 93, N-{2-chloro-6-[4-(propan-2-yl)piperazin-1-yl]phenyl}-4-methyl-4-[2-(propan-2-yl)-1,3-oxazol-5-yl]piperidine-1-carboxamide], which “Agonist Activity (%)” value is on record?
The value was 203%.

Which “Agonist Activity (%)” value does the source give for `CC(C)N1CCN(c2cccc(Cl)c2NC(=O)N2CCC(F)(c3noc(C4CC4)n3)CC2)CC1` [Example 94, N-{2-chloro-6-[4-(propan-2-yl)piperazin-1-yl]phenyl}-4-(5-cyclopropyl-1,2,4-oxadiazol-3-yl)-4-fluoropiperidine-1-carboxamide] here?
Its value is 179%.

`CCc1nc(C2(F)CCN(C(=O)Nc3c(Cl)cccc3N3CCN(C(C)C)CC3)CC2)no1` [Example 95, N-{2-chloro-6-[4-(propan-2-yl)piperazin-1-yl]phenyl}-4-(5-ethyl-1,2,4-oxadiazol-3-yl)-4-fluoropiperidine-1-carboxamide] was tested. Which “Agonist Activity (%)” value did it give?
Its value is 178%.

How did the “Agonist Activity (%)” value turn out when `CC(C)N1CCN(c2cccc(Cl)c2NC(=O)N2CCC(C)(c3csc(C4CC4)n3)CC2)CC1` [Example 96, N-{2-chloro-6-[4-(propan-2-yl)piperazin-1-yl]phenyl}-4-(2-cyclopropyl-1,3-thiazol-4-yl)-4-methylpiperidine-1-carboxamide] was run?
Its value is 160%.

Which “Agonist Activity (%)” value does the source give for `CC(C)N1CCN(c2cccc(Cl)c2NC(=O)N2CCc3ccccc3CC2)CC1` [Example 97, N-{2-chloro-6-[4-(propan-2-yl)piperazin-1-yl]phenyl}-1,2,4,5-tetrahydro-3H-3-benzazepine-3-carboxamide] here?
The value was 69%.

Which “Agonist Activity (%)” value does the source give for `Cc1cnc(C2CCN(C(=O)Nc3c(Cl)cccc3N3CCN(C(C)C)CC3)CC2)nc1` [Example 98, N-{2-chloro-6-[4-(propan-2-yl)piperazin-1-yl]phenyl}-4-(5-methylpyrimidin-2-yl)piperidine-1-carboxamide] here?
Its value is 165%.

`Cc1ccc(N2CCCN(C(=O)Nc3c(Cl)cccc3N3CCN(C(C)C)CC3)CC2)cc1` [Example 99, N-{2-chloro-6-[4-(propan-2-yl)piperazin-1-yl]phenyl}-4-(4-methylphenyl)-1,4-diazepane-1-carboxamide] was tested. Which “Agonist Activity (%)” value did it give?
Its value is 75%.

For `CC1(c2noc(C3CC3)n2)CCN(C(=O)Nc2c(Cl)cccc2N2CCN(C(C)(C)C)CC2)CC1` [Example 100, N-[2-(4-tert-butylpiperazin-1-yl)-6-chlorophenyl]-4-(5-cyclopropyl-1,2,4-oxadiazol-3-yl)-4-methylpiperidine-1-carboxamide], which “Agonist Activity (%)” value is on record?
Its value is 160%.

With `CC(C)N1CCN(c2cccc(Cl)c2NC(=O)N2CCC(C)(c3ncc(C4CC4)s3)CC2)CC1` [Example 101, N-{2-chloro-6-[4-(propan-2-yl)piperazin-1-yl]phenyl}-4-(5-cyclopropyl-1,3-thiazol-2-yl)-4-methylpiperidine-1-carboxamide] as the compound, how does the “Agonist Activity (%)” value read?
Its value is 157%.

`CC(C)N1CCN(c2cccc(Cl)c2NC(=O)N2CCC(C)(c3nnc(C4CC4)s3)CC2)CC1` [Example 102, N-{2-chloro-6-[4-(propan-2-yl)piperazin-1-yl]phenyl}-4-(5-cyclopropyl-1,3,4-thiadiazol-2-yl)-4-methylpiperidine-1-carboxamide] was tested. Which “Agonist Activity (%)” value did it give?
The value was 160%.

`CC(C)N1CCN(c2cccc(Cl)c2NC(=O)N2CCC(C)(c3noc(C4CC4)c3Cl)CC2)CC1` [Example 103, 4-(4-chloro-5-cyclopropyl-1,2-oxazol-3-yl)-N-{2-chloro-6-[4-(propan-2-yl)piperazin-1-yl]phenyl}-4-methylpiperidine-1-carboxamide] was tested. Which “Agonist Activity (%)” value did it give?
Its value is 178%.

`CC(C)N1CCN(c2cccc(Cl)c2NC(=O)N2CCC(C)(c3noc(CC4CC4)n3)CC2)CC1` [Example 105, N-{2-chloro-6-[4-(propan-2-yl)piperazin-1-yl]phenyl}-4-[5-(cyclopropylmethyl)-1,2,4-oxadiazol-3-yl]-4-methylpiperidine-1-carboxamide] was tested. Which “Agonist Activity (%)” value did it give?
Its value is 165%.

How did the “Agonist Activity (%)” value turn out when `CC(C)N1CCN(c2cccc(Cl)c2NC(=O)N2CCC(C)(c3noc(C4CC4(C)C)n3)CC2)CC1` (stereo not drawn) [Example 106, N-{2-chloro-6-[4-(propan-2-yl)piperazin-1-yl]phenyl}-4-[5-(2,2-dimethylcyclopropyl)-1,2,4-oxadiazol-3-yl]-4-methylpiperidine-1-carboxamide] was run?
The value was 185%.

How did the “Agonist Activity (%)” value turn out when `CC(C)N1CCN(c2cccc(Cl)c2NC(=O)N2CCC(C)(c3noc(C4(C(F)(F)F)CC4)n3)CC2)CC1` [Example 107, N-{2-chloro-6-[4-(propan-2-yl)piperazin-1-yl]phenyl}-4-methyl-4-{5-[1-(trifluoromethyl)cyclopropyl]-1,2,4-oxadiazol-3-yl}piperidine-1-carboxamide] was run?
Its value is 163%.

Which “Agonist Activity (%)” value does the source give for `COC1(c2nc(C3(C)CCN(C(=O)Nc4c(Cl)cccc4N4CCN(C(C)C)CC4)CC3)no2)CC1` [Example 108, N-{2-chloro-6-[4-(propan-2-yl)piperazin-1-yl]phenyl}-4-[5-(1-methoxycyclopropyl)-1,2,4-oxadiazol-3-yl]-4-methylpiperidine-1-carboxamide] here?
The value was 157%.

`CC(C)N1CCN(c2cccc(Cl)c2NC(=O)N2CCC(C)(c3noc(C4(F)CC4)n3)CC2)CC1` [Example 109, N-{2-chloro-6-[4-(propan-2-yl)piperazin-1-yl]phenyl}-4-[5-(1-fluorocyclopropyl)-1,2,4-oxadiazol-3-yl]-4-methylpiperidine-1-carboxamide] was tested. Which “Agonist Activity (%)” value did it give?
Its value is 161%.

How did the “Agonist Activity (%)” value turn out when `CC1(c2noc(C3CC3)n2)CCN(C(=O)Nc2c(Cl)cccc2N2CCN(C3CC3)CC2)CC1` [Example 113, N-[2-chloro-6-(4-cyclopropylpiperazin-1-yl)phenyl]-4-(5-cyclopropyl-1,2,4-oxadiazol-3-yl)-4-methylpiperidine-1-carboxamide] was run?
The value was 157%.

How did the “Agonist Activity (%)” value turn out when `CC(C)N1CCN(c2cccc(Cl)c2NC(=O)N2CCC(C)(c3noc(C4CC4(F)F)n3)CC2)CC1` (stereo not drawn) [Example 114, N-{2-chloro-6-[4-(propan-2-yl)piperazin-1-yl]phenyl}-4-[5-(2,2-difluorocyclopropyl)-1,2,4-oxadiazol-3-yl]-4-methylpiperidine-1-carboxamide] was run?
Its value is 155%.

Which “Agonist Activity (%)” value does the source give for `CC(C)N1CCN(c2cccc(Cl)c2NC(=O)N2CCC(C)(c3noc([C@H]4C[C@H]4C)n3)CC2)CC1` [Example 117, N-{2-chloro-6-[4-(propan-2-yl)piperazin-1-yl]phenyl}-4-methyl-4-{5-[(1S,2R)-2-methylcyclopropyl]-1,2,4-oxadiazol-3-yl}piperidine-1-carboxamide] here?
Its value is 158%.
